Molecules are shown by their SMILES. Read-outs that look alike come from different tables or passages of the source.

In assay [1] the test system is T24 human bladder carcinoma cells. Kind of assay: Cell viability MTT assay, T24. It is filed as cell-based. Particulars: for GI50: 72 h, MTT assay; for IC50: Table 3, tumor cell model. Here is the method:
(§1) PC-3 human prostate cancer cells, and LAMA chronic myeloid leukemia were cultured in RPMI 1640 containing 10% fetal bovine serum and 1% antibiotics (100 U/mL penicillin and 100 μg/mL streotimycin) at 37° C. in 5% CO2 humidified incubators. HL60 […] were cultured in RPMI 1640 containing 15% fetal bovine serum and 1% antibiotics (100 U/mL penicillin and 100 μg/mL streotimycin) at 37° C. in 5% CO2 humidified incubators. HepG-2 human liver cancer cells were cultured in EMEM containing 10% of FBS, 1% of nonessential amino acids, 1 mM of Na-pyruvate, 1% of PenStrep antibiotics and 600 μg/mL of Geneticin. A549 human lung carcinoma cells, T24 human bladder carcinoma cells, MCF-7 human breast adenocarcinoma cells, U-2OS human osteosarcoma and NIH3T3 murine fibroblast cells were cultured in DMEM medium containing 10% fetal bovine serum and 1% antibiotics at 37° C. in 5% CO2 humidified incubators. MC3T3 mouse osteoblast cells were cultured in MEM medium containing 10% fetal bovine serum and 1% antibiotics at 37° C. in 5% CO2 humidified incubators. RWPE-1 human prostate normal cells were cultured in K-SFM medium containing 0.05 mg/ml bovine pituitary extract (BPE) and 5 ng/ml epidermal growth factor (EGF) at 37° C. in 5% CO2 humidified incubators. The MTT reagent (3-(4,5-dimethylthiazol-2-yl)-2,5-diphenyltetrazolium bromide) was used to determine cell death as originally described by Mosmaneland modified by Cuvillier et al.^[6] Briefly, cells were seeded 5,000 to 10,000 cells/well in 24-well plates depending on the cell type and allowed to attach overnight. All of the complexes were dissolved in DMSO. The concentration of the complexes was calculated according to the elemental composition of the complexes determined by the elemental analyses. Media in the presence of the tested complexes were added and serially diluted to various concentrations (from 5 μM to 0.01 μM). Next to these concentrations, for DHA 50, 20 and 10 μM and for the cationic bisNHC gold(I) complex 3 0.001 μM have been used. […] After 72 h of treatment, cells were incubated at 37° C. and 5% CO2 with 25 μL MTT solution (5 mg/mL; Sigma-Aldrich) in 24-well plates for approximately 3 to 4 h. After solubilization with 500 μL of lysis buffer (DMSO), formazan was quantified by spectrophotometry with a microplate reader at 570 nm absorbance. The GI50 values corresponding to the concentration that caused 50% inhibition of cell proliferation were calculated from dose-response curves obtained by nonlinear regression analysis (Prism 8, Graphpad Software). All the results were calculated from data obtained in three independent experiments.

Assay [2] has as its system HepG-2 human liver cancer cells. The assay is described as follows: Cell viability MTT assay, HepG-2. Format: cell-based. Here is the method:
PC-3 human prostate cancer cells, and LAMA chronic myeloid leukemia were cultured in RPMI 1640 containing 10% fetal bovine serum and 1% antibiotics (100 U/mL penicillin and 100 μg/mL streotimycin) at 37° C. in 5% CO2 humidified incubators. HL60 […] were cultured in RPMI 1640 containing 15% fetal bovine serum and 1% antibiotics (100 U/mL penicillin and 100 μg/mL streotimycin) at 37° C. in 5% CO2 humidified incubators. HepG-2 human liver cancer cells were cultured in EMEM containing 10% of FBS, 1% of nonessential amino acids, 1 mM of Na-pyruvate, 1% of PenStrep antibiotics and 600 μg/mL of Geneticin. A549 human lung carcinoma cells, T24 human bladder carcinoma cells, MCF-7 human breast adenocarcinoma cells, U-2OS human osteosarcoma and NIH3T3 murine fibroblast cells were cultured in DMEM medium containing 10% fetal bovine serum and 1% antibiotics at 37° C. in 5% CO2 humidified incubators. MC3T3 mouse osteoblast cells were cultured in MEM medium containing 10% fetal bovine serum and 1% antibiotics at 37° C. in 5% CO2 humidified incubators. RWPE-1 human prostate normal cells were cultured in K-SFM medium containing 0.05 mg/ml bovine pituitary extract (BPE) and 5 ng/ml epidermal growth factor (EGF) at 37° C. in 5% CO2 humidified incubators. The MTT reagent (3-(4,5-dimethylthiazol-2-yl)-2,5-diphenyltetrazolium bromide) was used to determine cell death as originally described by Mosmaneland modified by Cuvillier et al.^[6] Briefly, cells were seeded 5,000 to 10,000 cells/well in 24-well plates depending on the cell type and allowed to attach overnight. All of the complexes were dissolved in DMSO. The concentration of the complexes was calculated according to the elemental composition of the complexes determined by the elemental analyses. […] After solubilization with 500 μL of lysis buffer (DMSO), formazan was quantified by spectrophotometry with a microplate reader at 570 nm absorbance. […] All the results were calculated from data obtained in three independent experiments.

Assay [3] relates to A549 human lung carcinoma cells. Kind of assay: Cell viability MTT assay, A549. It is filed as cell-based. Particulars: for GI50: 72 h, MTT assay; for IC50: Table 3, tumor cell model. Here is the method: as §1
A further assay has as its system U-2OS human osteosarcoma. The assay is described as follows: Cell viability MTT assay, U-2OS. Format: cell-based. Particulars: for GI50: 72 h, MTT assay; for IC50: Table 3, tumor cell model, read-out: IC50 U2OS (bone tumor). Here is the method: as §1
For another assay, the system named is Nrf2. The assay is described as follows: NRF2 transcriptional activity, ARE Reporter Hep G2 cell line. It is filed as cell-based, human. Particulars: ARE Reporter Hep G2 cells, 16 hours, any dose. The protocol: The ARE Reporter Hep G2 cell line containing a firefly luciferase gene under the control of ARE stably integrated into Hep G2 cells was used to quantify NRF2 transcriptional activity after 16 hours of treatment with the indicated doses of the different complexes. The results are shown as fold induction of ARE luciferase reporter expression. Dashed line indicates a fold induction of 1 (values >1 mean activation and values <1 mean inhibition).
ARE-reporter-HepG-2 cells were harvested from culture in Growth Medium 1K and they were seeded at a concentration of 40,000 cells/well into white clear-bottom 96-well microplate in 45 μL of Growth Medium 1K without Geneticin. Cells were allowed to attach overnight and then treated with different concentrations of complex 2a (from 0.01 μM to 20 μM), auranofin (from 0.01 μM to 20 μM) or DHA (from 0.01 μM to 3, 5, 10, 20 and 50 μM), and complex (from 0.01 μM to 20 μM). After incubation at 37° C. and 5% CO2 for 16 hours, ONE-Step luciferase assay reagent (100 μL) was added and rock at room temperature for over 15 minutes. Then the luminescence of each well was determined by CLARIOstar microplate reader to quantify induction of ARE. Three independent experiments were performed as biological triplicates. The results are in FIG. 4.

On to `C[C@H]1[C@@H](O)O[C@@H]2O[C@]3(C)CC[C@H]4[C@H](C)CC[C@@H]1[C@@]24OO3` [DHA, dihydroartemisinin], for which the GI50 in assay [1] (Homo sapiens) came out at 4.99 µM; in assay [2] (Homo sapiens, HepG2, 72 h), 12 µM; in assay [3] (Homo sapiens, A549) it was 11 µM; in the assay on U-2OS human osteosarcoma (Homo sapiens, U2OS), 4.1 µM. For the same compound, the IC50 in assay [1] (Homo sapiens) was 4.99 µM; in assay [3] (Homo sapiens, A549), 11 µM; with U-2OS human osteosarcoma (Homo sapiens, U2OS), 4.1 µM.

In the case of `CC(=O)OC[C@H]1O[C@@H]([S-])[C@H](OC(C)=O)[C@@H](OC(C)=O)[C@@H]1OC(C)=O.CCP(CC)CC.[Au+]` [Auranofin], the “Effect on activity of Nrf2” value in the assay on Nrf2 is reported as “activate”. Besides, the GI50 in assay [1] amounted to 1.1 µM; in assay [2] (72 h), 3.62 µM; in assay [3], 4.41 µM; in the assay on U-2OS human osteosarcoma (read-out: GI50 U2OS), 0.47 µM. Further, the IC50 in assay [1] was 1.1 µM; in assay [3], 4.41 µM; with U-2OS human osteosarcoma it was 0.474 µM.

Values taken from US20220235073A1, “ARTEMISININ-DERIVATIVE N-HETEROCYCLIC CARBENE GOLD(I) HYBRID COMPLEXES” (CENTRE NATIONAL DE LA RECHERCHE SCIENTIFIQUE, priority 2019, published 2022).
